Experimental data taken from US20040067241A1, “Comtrol a/k/a Virex antiviral composition” (priority 2002, published 2004).

Conditions: 75 mg/kg/day i.n.

NC(=O)c1ncn([C@@H]2O[C@H](CO)[C@@H](O)[C@H]2O)n1 [Ribavirin]
Tox Controls Surv/Total (bid x 5, uninfected mice): 3/3
Tox Controls Mean Host Weight Change (initial weight vs weight 18 h after final treatment): -1.7 g
